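These data come from cells grown in 96-well plates and exposed to compound for 48 hours at five concentrations. Here, GI50 denotes the concentration required for 50% inhibition of growth.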 Active and inactive are the calls of the source. No stated cut-off is given here; in the data, active = GI50 up to about 1.1 µM and inactive = higher.
Experiments:
Assay in all cases: inhibition of tumour cell growth, NCI panel, 48 h
A498 = tested on: A498
ACHN = tested on: ACHN
CCRF-CEM = tested on: CCRF-CEM
COLO 205 = tested on: COLO 205
HCC 2998 = tested on: HCC 2998
HCT-15 = tested on: HCT-15
HOP-62 = tested on: HOP-62
HOP-92 = tested on: HOP-92
LOX IMVI = tested on: LOX IMVI
M14 = tested on: M14
MDA-MB-231 = tested on: MDA-MB-231
MOLT-4 = tested on: MOLT-4
NCI-H23 = tested on: NCI-H23
NCI-H460 = tested on: NCI-H460
OVCAR-8 = tested on: OVCAR-8
RPMI-8226 = tested on: RPMI-8226
SN12C = tested on: SN12C
SNB-75 = tested on: SNB-75
SW-620 = tested on: SW-620
UO-31 = tested on: UO-31

| SMILES | GI50 (A498) | GI50 (ACHN) | GI50 (CCRF-CEM) | GI50 (COLO 205) | GI50 (HCC 2998) | GI50 (HCT-15) [µM] | GI50 (HOP-62) | GI50 (HOP-92) | GI50 (LOX IMVI) | GI50 (M14) | GI50 (MDA-MB-231) | GI50 (MOLT-4) | GI50 (NCI-H23) | GI50 (NCI-H460) | GI50 (OVCAR-8) | GI50 (RPMI-8226) | GI50 (SN12C) | GI50 (SNB-75) | GI50 (SW-620) | GI50 (UO-31) |
| --- | --- | --- | --- | --- | --- | --- | --- | --- | --- | --- | --- | --- | --- | --- | --- | --- | --- | --- | --- | --- |
| COc1ccc(SCc2cc(OC)c(OC)c(OC)c2)cc1OC | 40.9 µM (inactive) | 51.8 µM (inactive) | 64.9 µM (inactive) | 50.4 µM (inactive) | 50.9 µM (inactive) | 34 | > 100 µM (inactive) | 25.6 µM (inactive) | 51.4 µM (inactive) | 64.1 µM (inactive) | 57 µM (inactive) | 46.2 µM (inactive) | 27.5 µM (inactive) | > 79.6 µM (inactive) | > 80.2 µM (inactive) | 33.3 µM (inactive) | > 100 µM (inactive) | 17.7 µM (inactive) | 82.6 µM (inactive) | 27.9 µM (inactive) |
| C=CC[C@@]1(OC(C)=O)C(=O)C(=O)OC1C1COC(C)(C)O1 (stereo not given in full) | 21.9 µM (inactive) | 16.6 µM (inactive) | 6.04 µM (inactive) | 12.9 µM (inactive) | 20.7 µM (inactive) | 15 | 49.4 µM (inactive) | 14.6 µM (inactive) | 6.17 µM (inactive) | 15.7 µM (inactive) | 15.8 µM (inactive) | 14.3 µM (inactive) | 20.3 µM (inactive) | 17.9 µM (inactive) | 20.1 µM (inactive) | 12.4 µM (inactive) | 17.6 µM (inactive) | 31.8 µM (inactive) | 11.9 µM (inactive) | 17.6 µM (inactive) |
| Clc1ccc(/C(=C\c2ccccc2)Cn2ccnc2)cc1 | 15.3 µM (inactive) | 16.6 µM (inactive) | 24.5 µM (inactive) | 15.1 µM (inactive) | 21.3 µM (inactive) | 17.8 | 15.9 µM (inactive) | 14.8 µM (inactive) | 8.83 µM (inactive) | 19.6 µM (inactive) | 11.1 µM (inactive) | 21.1 µM (inactive) | 28.9 µM (inactive) | 20.1 µM (inactive) | 16.1 µM (inactive) | 22.3 µM (inactive) | 27.4 µM (inactive) | 26.2 µM (inactive) | 29.5 µM (inactive) | 5.28 µM (inactive) |
| Cc1[nH]c2ncn(Nc3ccccc3)c(=N)c2c1Cc1ccccc1 | 33 µM (inactive) | 4.22 µM (inactive) | 37.3 µM (inactive) | 0.0998 µM (active) | > 100 µM (inactive) | 4.34 | 32.4 µM (inactive) | 33.1 µM (inactive) | 10.7 µM (inactive) | 0.162 µM (active) | 61.7 µM (inactive) | 35.6 µM (inactive) | 31.8 µM (inactive) | 14.3 µM (inactive) | 32.9 µM (inactive) | > 60.7 µM (inactive) | > 80.5 µM (inactive) | 71.3 µM (inactive) | 34.1 µM (inactive) | > 100 µM (inactive) |
| C=CCN1C(=O)/C(=C/c2ccccc2)NC1=S | 38.3 µM (inactive) | > 100 µM (inactive) | > 100 µM (inactive) | > 100 µM (inactive) | > 100 µM (inactive) | > 100 | > 100 µM (inactive) | > 100 µM (inactive) | > 100 µM (inactive) | > 100 µM (inactive) | > 100 µM (inactive) | 61.7 µM (inactive) | > 100 µM (inactive) | > 100 µM (inactive) | > 100 µM (inactive) | 48.5 µM (inactive) | > 100 µM (inactive) | > 100 µM (inactive) | > 100 µM (inactive) | > 100 µM (inactive) |
| Cn1cnc([N+](=O)[O-])c1[Se]c1nc(N)nc2c1ncn2C1OC(CO)C(O)C1O (stereo not given) | > 100 µM (inactive) | > 100 µM (inactive) | > 100 µM (inactive) | > 100 µM (inactive) | > 100 µM (inactive) | > 100 | > 100 µM (inactive) | > 100 µM (inactive) | > 100 µM (inactive) | > 100 µM (inactive) | > 100 µM (inactive) | > 100 µM (inactive) | > 100 µM (inactive) | > 100 µM (inactive) | > 100 µM (inactive) | > 100 µM (inactive) | > 100 µM (inactive) | > 100 µM (inactive) | > 100 µM (inactive) | > 100 µM (inactive) |
| Cc1ccc([S+](c2ccccc2)c2cc(C)ccc2C)cc1.O=C(OC(C(=O)[O-])C(OC(=O)c1ccccc1)C(=O)O)c1ccccc1 (stereo not given) | 39.2 µM (inactive) | 22.9 µM (inactive) | 12.8 µM (inactive) | 4.26 µM (inactive) | 7.46 µM (inactive) | > 100 | 21.5 µM (inactive) | 13.5 µM (inactive) | 6.85 µM (inactive) | 18.9 µM (inactive) | 16.9 µM (inactive) | 26.5 µM (inactive) | 3.82 µM (inactive) | 10.7 µM (inactive) | 6.7 µM (inactive) | 2 µM (inactive) | 17.7 µM (inactive) | 8.09 µM (inactive) | 7.89 µM (inactive) | 38 µM (inactive) |

From ChEMBL document CHEMBL1201862, “PubChem BioAssay data set” (2004)
